{"source": "paper PMC12396409", "about": "“Screening and hit evaluation of a microbial metabolite library against the pathogenic Plasmodium falciparum and Toxoplasma gondii parasites” (International Journal for Parasitology: Drugs and Drug …, 2025)", "key": {"[1]": {"test_system": "P. falciparum 3D7 parasites", "assay": "P. falciparum growth inhibition assay, 1-cycle (72 h treatment), SYBR DNA staining (library screen at 2 μg/mL and dose-response)", "type": "cell-based, Plasmodium falciparum", "settings": "for activity in the screen against P. falciparum: 2 μg/mL, active = ≥80 % growth inhibition; for IC50: 3D7, 72 h treatment, mean ± S.D., n ≥ 3, read-out: IC50 (μM), P. falciparum; for Screen (P. falciparum): library screen at 2 μg/mL, 3D7, 72 h, DD from the 120 h timepoint"}, "P. falciparum": {"test_system": "P. falciparum", "settings": "cited from earlier work"}, "[2]": {"test_system": "human neonatal foreskin fibroblast (NFF)", "assay": "Cytotoxicity screen at 5 μg/mL, resazurin dye assay, 96 h"}, "[3]": {"test_system": "P. falciparum 3D7 parasites", "assay": "P. falciparum growth inhibition assay, 2-cycle (120 h treatment), delayed-death screen and dose-response", "type": "cell-based, Plasmodium falciparum", "settings": "for IC50: 3D7, read-out: IC50, P. falciparum, 120 h dose-response (delayed-death)"}, "[4]": {"test_system": "T. gondii RH strain (RH-Tub-eYFP) tachyzoites", "assay": "microbe, parasite or virus in culture", "type": "cell-based, Toxoplasma gondii"}, "[5]": {"settings": "Plasmodium falciparum, 3D7, P. falciparum, 72 h, screen at 2 μg/mL, replicate 1, read-out: Pf_72h_%Growth_Rep1"}, "[6]": {"settings": "Plasmodium falciparum, 3D7, P. falciparum, 72 h, screen at 2 μg/mL, replicate 2, read-out: Pf_72h_%Growth_Rep2"}, "[7]": {"settings": "Plasmodium falciparum, 3D7, P. falciparum, 120 h, screen at 2 μg/mL, replicate 1, read-out: Pf_120h_%Growth_Rep1"}, "[8]": {"settings": "Plasmodium falciparum, 3D7, P. falciparum, 120 h, screen at 2 μg/mL, replicate 2, read-out: Pf_120h_%Growth_Rep2"}, "[9]": {"settings": "2 μg/mL, 72 h, active = ≥80 % growth inhibition"}, "[10]": {"settings": "Toxoplasma gondii; RH strain, 72 h, mean ± S.D., n ≥ 3; read-out: IC50 (μM), T. gondii (converted)"}}, "note": "Read-outs that look alike come from different tables or passages of the source.", "data": [{"smiles": "COCC(=O)N[C@@H](C(=O)N1NCCC[C@H]1C(=O)N[C@@H](Cc1ccccc1)[C@@H](O)[C@H](C)C(=O)N[C@H]1CCN(C(N)=O)C1=O)[C@H](O)C(C)C", "note": "[Padanamide A]", "values": [{"measurement": "activity in the screen against P. falciparum", "setting": "[1]; 72 h", "value": "active against P. falciparum"}, {"measurement": "IC50", "setting": "P. falciparum; another study, ref Cheng et al., 2015, read-out: IC50 in P. falciparum", "value": "~200", "unit": "nM"}]}, {"smiles": "CC(/C=C/C[C@@H](C)/C=C(C)/C=C/[C@@H]1OC(=O)C=C[C@@H]1C)=C\\[C@@H](C)C(=O)[C@@H](C)[C@H](O)[C@@H](C)C/C(C)=C/C(=O)O", "note": "[leptomycin A]", "values": [{"measurement": "cytotoxic activity in the screen against fibroblasts", "setting": "[2]", "value": "cytotoxic activity"}]}, {"smiles": "C=C(NC(=O)C(=C)NC(=O)c1csc(C2=N[C@@H]3c4csc(n4)[C@H]4NC(=O)c5csc(n5)[C@H]([C@](C)(O)[C@@H](C)O)NC(=O)[C@H]5CSC(=N5)/C(=C/C)NC(=O)[C@H]([C@@H](C)O)NC(=O)c5csc(n5)[C@]3(CC2)NC(=O)[C@H](C)NC(=O)C(=C)NC(=O)[C@H](C)NC(=O)[C@H]([C@@H](C)CC)N[C@@H]2C=Cc3c([C@H](C)O)cc(nc3[C@H]2O)C(=O)O[C@@H]4C)n1)C(N)=O", "note": "[thiostrepton, reference compound]", "values": [{"measurement": "activity at 2 µg/mL", "setting": "[1]; [5]", "value": 56.7, "unit": "%"}, {"measurement": "activity at 2 µg/mL", "setting": "[1]; [6]", "value": 65.2, "unit": "%"}, {"measurement": "activity at 2 µg/mL", "setting": "[3]; [7]", "value": 60.6, "unit": "%"}, {"measurement": "activity at 2 µg/mL", "setting": "[3]; [8]", "value": 35.5, "unit": "%"}, {"measurement": "percent parasite growth at 2 µg/mL", "setting": "[4]; Toxoplasma gondii; T. gondii, 72 h, screen at 2 μg/mL, replicate 1; read-out: Tg_72h_%Growth_Rep1", "value": 86.7, "unit": "%"}, {"measurement": "percent parasite growth at 2 µg/mL", "setting": "[4]; Toxoplasma gondii; T. gondii, 72 h, screen at 2 μg/mL, replicate 2; read-out: Tg_72h_%Growth_Rep2", "value": 93.6, "unit": "%"}, {"measurement": "IC50", "setting": "P. falciparum; ref Aminake et al., 2011, Schoof et al., 2010, read-out: IC50 in Plasmodium", "value": "~10000", "unit": "nM"}]}, {"smiles": "CCC[C@@H]1C[C@@H](C(=O)N[C@@H]([C@H]2O[C@H](SC)[C@H](O)[C@@H](O)[C@H]2O)[C@H](C)Cl)N(C)C1", "note": "[clindamycin]", "values": [{"measurement": "IC50", "setting": "P. falciparum; 48–72 h, ref Wilson et al., 2013, read-out: IC50 at 48–72 h", "value": "≥ 5000", "unit": "nM"}, {"measurement": "IC50 at more than 96 h", "setting": "P. falciparum; more than 96 h, ref Wilson et al., 2013", "value": "low nanomolar range"}]}, {"smiles": "C=C[C@]1(C)C[C@@H](OC(=O)CS[C@@H]2C[C@H]3CC[C@@H](C2)N3C)[C@]2(C)[C@H](C)CC[C@]3(CCC(=O)[C@H]32)[C@@H](C)[C@@H]1O", "note": "[Retapamulin, reference compound]", "values": [{"measurement": "activity in the screen against P. falciparum", "setting": "[1]; 72 h", "value": "active against both P. falciparum and T. gondii"}, {"measurement": "activity at 2 µg/mL", "setting": "[1]; Plasmodium falciparum, 3D7, P. falciparum, 72 h, parasite screen 2 μg/mL, % growth, replicate 1, read-out: Pf_72h_%Growth_Rep1", "value": 8.14, "unit": "%"}, {"measurement": "activity at 2 µg/mL", "setting": "[1]; Plasmodium falciparum, 3D7, P. falciparum, 72 h, parasite screen 2 μg/mL, % growth, replicate 2, read-out: Pf_72h_%Growth_Rep2", "value": 8.89, "unit": "%"}, {"measurement": "IC50", "setting": "[1]; Plasmodium falciparum", "value": "> 1", "unit": "µM"}, {"measurement": "Screen (P. falciparum)", "setting": "[1]", "value": "A, A"}, {"measurement": "IC50", "setting": "[3]; Plasmodium falciparum", "value": 106, "unit": "nM"}, {"measurement": "activity at 2 µg/mL", "setting": "[3]; Plasmodium falciparum, 3D7, P. falciparum, 120 h, parasite screen 2 μg/mL, % growth, replicate 1, read-out: Pf_120h_%Growth_Rep1", "value": -0.64, "unit": "%"}, {"measurement": "activity at 2 µg/mL", "setting": "[3]; Plasmodium falciparum, 3D7, P. falciparum, 120 h, parasite screen 2 μg/mL, % growth, replicate 2, read-out: Pf_120h_%Growth_Rep2", "value": 3.58, "unit": "%"}, {"measurement": "activity in the screen against T. gondii", "setting": "[4]; [9]", "value": "active against both P. falciparum and T. gondii"}, {"measurement": "percent parasite growth at 2 µg/mL", "setting": "[4]; Toxoplasma gondii, 72 h, T. gondii, 72 h, parasite screen 2 μg/mL, % growth, replicate 1; read-out: Tg_72h_%Growth_Rep1", "value": 2.49, "unit": "%"}, {"measurement": "percent parasite growth at 2 µg/mL", "setting": "[4]; Toxoplasma gondii, 72 h, T. gondii, 72 h, parasite screen 2 μg/mL, % growth, replicate 2; read-out: Tg_72h_%Growth_Rep2", "value": 9.45, "unit": "%"}, {"measurement": "IC50", "setting": "[4]; [10]", "value": 0.085, "unit": "µM"}, {"measurement": "Screen (T. gondii)", "setting": "[4]; library screen at 2 μg/mL, RH strain, 72 h", "value": "A, A"}, {"measurement": "selectivity index", "setting": "HFF cells", "value": "greater than 100"}]}, {"smiles": "C=C[C@]1(C)C[C@@H](OC(=O)CSC(C)(C)CNC(=O)[C@H](N)C(C)C)[C@]2(C)[C@H](C)CC[C@]3(CCC(=O)[C@H]32)[C@@H](C)[C@@H]1O", "note": "[Valnemulin, reference compound]", "values": [{"measurement": "activity at 2 µg/mL", "setting": "[1]; Plasmodium falciparum, 3D7; P. falciparum, 2 μg/mL, 72 h; read-out: 1) Growth (%) at 72 h", "value": 50.1, "unit": "%"}, {"measurement": "activity at 2 µg/mL", "setting": "[1]; [5]", "value": 44.3, "unit": "%"}, {"measurement": "activity at 2 µg/mL", "setting": "[1]; [6]", "value": 55.9, "unit": "%"}, {"measurement": "IC50", "setting": "[1]; Plasmodium falciparum", "value": "> 1", "unit": "µM"}, {"measurement": "Screen (P. falciparum)", "setting": "[1]", "value": "DD^"}, {"measurement": "delayed-death activity in the 120 h screen against P. falciparum", "setting": "[3]; 2 μg/mL, criteria: ≥40 % growth at 72 h, ≤20 % growth at 120 h, at least 5-fold", "value": "meeting two of our three criteria for delayed-death activity"}, {"measurement": "3) Fold change (72 h/120 h)", "setting": "[3]; P. falciparum, growth at 72 h / growth at 120 h, 2 μg/mL", "value": 3.7}, {"measurement": "IC50", "setting": "[3]; Plasmodium falciparum", "value": 64, "unit": "nM"}, {"measurement": "activity at 2 µg/mL", "setting": "[3]; Plasmodium falciparum, 3D7; P. falciparum, 2 μg/mL, 120 h; read-out: 2) Growth (%) at 120 h", "value": 13.4, "unit": "%"}, {"measurement": "activity at 2 µg/mL", "setting": "[3]; [7]", "value": 15, "unit": "%"}, {"measurement": "activity at 2 µg/mL", "setting": "[3]; [8]", "value": 11.8, "unit": "%"}, {"measurement": "activity in the screen against T. gondii", "setting": "[4]; [9]", "value": "active against T. gondii"}, {"measurement": "percent parasite growth at 2 µg/mL", "setting": "[4]; Toxoplasma gondii, 72 h, T. gondii, 72 h, screen at 2 μg/mL, replicate 1; read-out: Tg_72h_%Growth_Rep1", "value": 13.1, "unit": "%"}, {"measurement": "percent parasite growth at 2 µg/mL", "setting": "[4]; Toxoplasma gondii, 72 h, T. gondii, 72 h, screen at 2 μg/mL, replicate 2; read-out: Tg_72h_%Growth_Rep2", "value": 19.6, "unit": "%"}, {"measurement": "IC50", "setting": "[4]; [10]", "value": 0.232, "unit": "µM"}, {"measurement": "selectivity index", "setting": "HFF cells; fibroblasts over T. gondii, for cryptopleurine the parasite is not stated", "value": "greater than 100"}]}]}
